# Entries after “also recorded” stand apart in the source; their conditions may differ.
# Experiments:
# [1] = test system: lectin staining (carbohydrate portion of mucin); test: Lectin fluorescent staining (carbohydrate portion of mucin) of jejunal sections, rat SAO model; type: in vivo; details: SAO 30 min; lumenal injection 30 min prior
# Method: (§1) Male Wistar rats (250-300 g, Harlan Sprague Dawley Inc, Indianapolis, Ind.) were randomly assigned to each group (n=4 per group). Rats were kept on solid food restriction for 12 hours prior to surgery with water ad libitum. […] Sham groups were treated the same with the arteries separated but not ligated.
# (§2) Perfluorocarbon groups: Perfluorodecalin (PFC) (Sigma-Aldrich, St Louis, Mo.) with oxygen, previously bubbled into the solution for 10 min, was injected into the lumen of the intestine 30 min prior SHAM or SAO surgery (SHAM+PFC+O2, SAO+PFC+O2). PFC without oxygen bubbled into the solution was injected 30 min prior SHAM or SAO surgery (SHAM+PFC, SAO+PFC).
# (§3) ATP-MgCl2 groups: ATP-MgCl2 (Sigma-Aldrich), 25 mg/kg BW was injected in the lumen of the intestine 30 min prior to SHAM or SAO surgery (SHAM+ATP, SAO+ATP).
# (§4) pH groups: Acidic saline (pH 5.5) injected in the lumen of the intestine 30 min prior SHAM surgery or HEPES buffer (20 mM) injected into the lumen of the intestine 30 min prior to SHAM or SAO surgery.
# (§5) Free radicals groups: The hydroxyl radical scavenger, dimethylthiourea (DMTU, Sigma-Aldrich; 2.0 mg/g BW) was injected in the lumen of the intestine 30 min prior to SAO (SAO+DMTU).
# (§6) Tissue cryosections: After euthanasia, jejunal sections (˜1 cm in length) were excised without removal of lumenal contents and suspended in Tissue-Tek O.C.T. Compound (Sakura Finetek, Torrance, Calif.), snap frozen in isopentane/liquid nitrogen, and stored at −80° C. for analysis. Cryosections (5 μm thickness) along the longitudinal axis of the villi were used throughout all experiments. Cryosections were fixed in 10% formalin solution and processed in a non-blinded fashion.
# (§7) Mucin and lectin staining: The simultaneous visualization of lectins and mucin was carried out using Lectin GS-II from Griffonia simplicifolia, Alexa Fluor® 594 Conjugate (EnzChek®, Invitrogen, Carlsbad, Calif.) and specific antibody for mucin2 with FITC secondary antibody 1:10000 (Santa Cruz Biotechnology) and nuclei counterstaining with DAPI. Sections were observed on an inverted microscope (20× objective) using the appropriate fluorescent filters.
# mucin2 [2] = test: Western blot for mucin2 of intestine homogenates, rat SAO model; type: in vivo; details: SAO 30 min, lumenal injection 30 min prior
# Method: as §1, §2, §3, §4, §5
# (§8) Homogenates of intestine and lumenal contents: Jejunal segments were excised without removal of lumenal contents. For enzyme activity measurements, segments of intestine were homogenized with CelLytic™ (Sigma-Aldrich) without addition of protease inhibitors. For Western blot assays the intestine segments were homogenized as above in the presence of protease inhibitors (5 mM EDTA, 5 mM N-Ethylmaleimide, 25 mM iodoacetamide, 5 mM benzamidine, 300 mM acarbose, 5 mM 6-aminocaproic acid, 1 mM protease inhibitor cocktail, (Sigma-Aldrich). In separate experiments the small intestine of sham animals was excised, and the lumenal contents were flushed with 20 ml saline. Homogenates or lumenal contents were centrifuged (16,000 g for 15 min at 4° C.), the supernatant was collected and protein concentration was assessed with the bicinchoninic acid protein assay (Thermo Scientific).
# (§9) Western blot: 20 μg of tissue homogenate were separated by SDS-PAGE. Membranes were incubated with primary antibodies as follows: mucin2, mucin13 and trypsin 1:1000 (Santa Cruz Biotechnology), pancreatic amylase 1:1000 (GeneTex, San Antonio, Tex.), intra- and extra-cellular domains of E-cadherin and TLR4 1:1000 (Abcam), intracellular domain of TLR4 1:1000 (Invitrogen). Secondary antibodies were diluted 1:20000 (Santa Cruz Biotechnology) and detected with Super Signal West Pico (Thermo Scientific). The exposed x-ray films were scanned and label intensity was measured using digital gel analysis (NIH ImageJ software).
# [3] = test system: ATP concentration in intestine homogenates; test: ATP assay in intestine homogenates, rat SAO model; type: in vivo; details: SAO 30 min; lumenal injection 30 min prior
# Method: as §1, §2, §3, §4, §5
# ATP assay: ATP concentrations in intestine homogenates were measured using ATP fluorometirc assay kit (BioVision, Mountain View, Calif.) according to manufacturer's protocol. Briefly jejuna sections were homogenized with perchloric acid (BioVision), centrifuged at 15,000×G for 5 min at 4° C. Samples were mixed with ATP reaction mix, incubated for 30 min protected from light and the fluorescence was measured with 535/587 (Ex/Em).
# [4] = test system: trypsin activity in the intestinal wall; test: In-situ zymography for trypsin activity in jejunal cryosections, rat splanchnic arterial occlusion (SAO) model; type: in vivo; details: lumenal injection 30 min prior
# Method: as §1
# Control groups: Animals with saline injection into the lumen of the intestine, 3 ml/100 g Body Weight (BW), 30 min prior to SHAM or SAO surgery.
# as §2
# ATP-MgCl2 groups: ATP-MgCl2 (Sigma-Aldrich), 25 mg/kg BW was injected in the lumen of the intestine 30 min prior to SHAM or SAO surgery (SHAM+ATP, SAO+ATP). […]
# After 30 min SAO or sham surgery, the animals were euthanized (Beuthanasia®; 0.22 ml/kg BW, IV).
# as §6
# In-situ tissue zymography: In-situ zymography for trypsin activity in cryosections was assessed by measurement of fluorescence resulting from the proteolytic cleavage of the substrate (1 mM, Na-benzoyl-L-arginine-7-amido-methylcoumarin hydrochloride; Sigma-Aldrich) as described elsewhere with propidium iodine counterstaining (Sigma-Aldrich) (9). Slides were observed under an inverted microscope (20× and 60× objectives).
# intestinal villi hypoxia = test: Hypoxia staining (pimonidazole, Hypoxyprobe-1) of intestinal villi, rat SAO model; type: in vivo; details: SAO 30 min; lumenal injection 30 min prior
# Method: as §1, §2, §3, §4, §5
# Hypoxia staining: In separate experiments tissue hypoxia was detected with Hypoxyprobe™-1 Kit (Natural Pharmacia International, Burlington, Mass., USA). This method utilizes a small molecular marker, pimonidazole, which after intravenous injection forms adducts with thiol containing proteins only in oxygen-starved cells. After general anesthesia as described above, pimonidazole-HCl (6 mg/100 g) was injected intravenously 30 min before SAO or SHAM; at 30 min the animal was euthanized and the jejuna section removed, embedded in O.C.T and frozen in liquid nitrogen. Then cryosections were immunostained using a rabbit antibody that binds to protein adducts of pimonidazole in hypoxic cells.
# mucin2 [5] = test: Mucin2 fluorescent staining of jejunal sections, rat SAO model; type: in vivo; details: SAO 30 min, lumenal injection 30 min prior; for villi injury / villus structure: micrographs
# Method: as §1, §2, §3, §4, §5, §6, §7
# mucin13 = test: Western blot for mucin13 of intestine homogenates, rat SAO model; type: in vivo; details: SAO 30 min, lumenal injection 30 min prior
# Method: as §1, §2, §3, §4, §5, §8, §9
# ischemic intestine = test: Rat model with severe ischemic intestine (30 min ischemia), enteral oxygen carrier; type: in vivo; details: 7 ml for 230 g rat, saturated for 10 min in oxygen
# Method: The case was illustrated in a model with 30 min ischemia with Perfluorodecalin solution (7 ml for 230 g rat) saturated for 10 min in oxygen.
# [6] = test system: MDA equivalents (TBARS) in jejunal homogenates; test: Thiobarbituric Acid Reactive Substances (TBARS) assay, rat SAO model; type: in vivo; details: SAO 30 min; lumenal injection 30 min prior
# Method: as §1, §2, §3
# pH groups: Acidic saline (pH 5.5) injected in the lumen of the intestine 30 min prior SHAM surgery or HEPES buffer (20 mM) injected into the lumen of the intestine 30 min prior to SHAM or SAO surgery. […]
# TBARS assay: Thiobarbituric Acid Reactive Substances (TBARS) was measured using the TBARS assay kit (Zeptometrix, Buffalo, N.Y.) according to manufacturer's protocol. […] Samples were centrifuged at 3000 rpm for 15 min and the supernatant were read at 530/550 (Ex/Em).
# E-cadherin = test: Western blot of intra- and extracellular domains of E-cadherin in IEC-18 cells; type: cell-based; details: trypsin 50 μM
# Method: (§10) To investigate whether mucin provides a barrier against trypsin transport, IEC-18 cells (on Transwell plates) were coated with and without a mucin film (400 μm, 10%, porcine stomach). FITC-dextrans (20 kDa, 5 mg/ml) with and without trypsin (50 μM) was added to the apical side and the rate of FITC accumulation on the basal side over 60 min was measured. To determine if trypsin cleaves the adherent junctions of the epithelium, it was measured by Western blot the levels of intra- and extracellular domains of E-cadherin. […] Thus, mucin protects against trypsin-mediated increases in intestinal epithelial permeability.
# IEC-18 cells = test: FITC-dextran permeability of IEC-18 cells on Transwell plates with and without mucin film; type: cell-based; details: trypsin 50 μM
# Method: as §10
# [7] = listed as deoxygenated perfluorcarbon
Molecule,lectin staining levels [1],"mucin2 protein levels (relative density, Western blot) (mucin2 [2])",ATP concentration in intestinal tissue homogenates [3],trypsin activity in the intestinal wall ([4]; SAO 30 min),trypsin activity in the intestinal wall ([4]; SHAM surgery),hypoxia staining levels (intestinal villi hypoxia),mucin2 staining levels (mucin2 [5]),villi injury / villus structure (mucin2 [5]),mucin13 protein levels / 17 kDa fragment (Western blot) (mucin13),intestinal damage (ischemic intestine),"trypsin activity in the intestinal wall ([4]; SAO 30 min, listed as oxygenated perfluorcarbon)",levels of MDA equivalents (TBARS) [6],E-cadherin cleavage (E-cadherin; without a mucin film),increase of epithelial permeability (FITC-dextran 20 kDa accumulation on basal side over 60 min) (IEC-18 cells; without a mucin film) [%],E-cadherin cleavage (E-cadherin; mucin film present),"decrease of epithelial permeability (FITC-dextran 20 kDa accumulation on basal side over 60 min) (IEC-18 cells; mucin film present (400 μm, 10%, porcine stomach), p<0.05) [%]","mucin2 protein levels (relative density, Western blot) (mucin2 [2]; [7])",mucin13 protein levels / 17 kDa fragment (Western blot) (mucin13; [7])
"O=S(=O)(O)CCN1CCN(CCO)CC1 [HEPES buffer, HEPES]",lower as compared to SHAM,no significant decrease in mucin2 molecule,significantly higher than SAO and similar to sham groups,Low levels of trypsin activity,minimal trypsin activity,significantly higher than the SHAM and SHAM-HEPES groups as well as the SAO group,"significantly lower as compared to SHAM, and they were also significantly higher than SAO",did not have signs of villi injury,no degradation of mucin13,,,,,,,,,
"CNC(=S)NC [DMTU, dimethylthiourea, reference compound]",lower levels of lectin labeling as compared to SHAM; also recorded: decrease in lectin staining,reduced levels of mucin2; also recorded: reduction in mucin2 protein levels,lower than SHAM and higher than SAO but it was not statistically significant,undetectable levels of trypsin activity; also recorded: reduced trypsin activity in the intestinal wall,,significantly low levels of hypoxia staining as compared to SAO,no significant change in mucin2 staining levels,undetectable villi injury,no appearance of the lower molecular weight band at 17 kDA; also recorded: preservation of mucin13 protein levels,,,,,,,,,
"FC1(F)C(F)(F)C(F)(F)C2(F)C(F)(F)C(F)(F)C(F)(F)C(F)(F)C2(F)C1(F)F (stereo not shown) [oxygenated perfluorocarbon, Perfluorodecalin]",significantly higher as compared to SAO and SAO-PFC,mucin2 density levels similar to the sham; also recorded: reduces mucin2 and mucin13 degradation,no reduction of ATP concentration,prevents the appearance of trypsin activity inside the intestinal wall,minimal trypsin activity,,significantly higher as compared to SAO and SAO-PFC,preserve the villus structure,complete disappearance or very faint levels of the 17 kDa band; also recorded: reduces mucin2 and mucin13 degradation,minimize intestinal damage,undetectable levels of trypsin activity,significantly lower as compared to SAO or SAO+PFC,,,,,,
trypsin,,,,,,,,,,,,,cleaved,42,,,,
mucin,,,,,,,,,,,,,,,cleavage is reduced,30,,
"FC1(F)C(F)(F)C(F)(F)C2(F)C(F)(F)C(F)(F)C(F)(F)C(F)(F)C2(F)C1(F)F (stereo not shown) [deoxygenated perfluorocarbon, Perfluorodecalin, reference compound]",significantly lower,,significantly decreased,High levels of trypsin activity,minimal trypsin activity,highest levels of hypoxia staining,significantly lower,,,,,,,,,,reduced in the SAO group (SAO+PFC) as compared to sham (SHAM+PFC),presented the lower molecular weight fragments at 17 kDa
